# Read-outs that look alike come from different tables or passages of the source.
# Experiments:
# [1] = Accelerated ageing of chlorine dioxide in aqueous carriers, 75 days at 50° C.; type: physicochemical
# Experimental: A series of dilutions were set up and aged for 75 days at 50° C., (approximately two years of stability of this solution) that creates chlorine dioxide. A solution of chlorine dioxide at a concentration of 0.4 ppm was separately added to dioxytetrahydride gas-infused water and a second sample in tap water. The samples were aged for 75 days at 50° C. Prior to testing the concentration of chlorine dioxide of each sample, a control of chlorine dioxide at a concentration of 0.4 ppm in water was prepared. The concentration of chlorine dioxide measured in the two samples after aging, was 0.4 ppm for the dioxytetrahydride gas-infused water and 0.2 ppm for tap water.
# The same protocol was performed on 0.2 ppm concentration of chlorine dioxide and the test results were 0.2 ppm for the dioxytetrahydride gas-infused water and 0.0 ppm in tap water.
# [2] = 58° C.
# Experimental: Continuous experiments on the relative stabilization of hydrogen peroxide with different aqueous carriers, that is, types of water, including dioxytetrahydride gas-infused water, were carried out.
# Very low concentrations of hydrogen peroxide (1.2 weight %) was added to the various aqueous carriers and measured for percent absorption by potassium permanganate titration.
# The samples were tested on day 1, 20, 27 and 34. The tests were accelerated in aging when the temperature of each water sample was maintained at 58° C., approximating close to two years of stabilization.
# [3] = initial 50 ppm
# Excerpt: Peroxide test strips supplied by Indigo® Instruments, Part #33815-P100 (referred as “peroxide test strips” or “test strip” herein) were used to determine the amount of hydrogen peroxide in either distilled water or in water infused with dioxytetrahydride gas (referred as “dioxytetrahydride gas-infused water” or “ultra-pure polarized water” herein). Test Strips are capable of measuring peroxide concentrations between 1 and 100 ppm (parts per million). A peroxide test strip was first submerged into 3% water solution of hydrogen peroxide obtained from a drugstore for home use.
# A peroxide test strip was submerged into a clear PET-1 bottle (0.5 liter) of distilled water produced by Crystal Springs and another clear PET-1 bottle (0.5 liter) of dioxytetrahydride gas-infused water manufactured by AquaNew, LLC, Sarasota, Fla., respectively. The water produced by AquaNew is highly purified resulting from at least six (6) stages of treatment to obtain on or about 0.3 ppm of Total Dissolved Solids (pharmaceutical-grade water). […] Ten (10) drops of peroxide were added into each sample bottle and a test strip was dipped into each bottle and each bottle was immediately recapped. […] Both bottles with closures were left on a shelf in open light conditions under climate controlled conditions with no direct sunlight.
# After two weeks, a test strip was dipped into each bottle and the bottle was immediately recapped. […] The two bottles with closures were placed back onto the shelf.
# After four (4) months, another test strip was dipped into each bottle and the bottles were immediately recapped.
# [4] = in dioxytetrahydride gas-infused water, throughout the 34 days, initial 1.2 weight %
"hydrogen peroxide concentration [2, 4]","percent absorption [2, 4]","hydrogen peroxide concentration ([2]; in tap water, day 20, initial 1.2%)","hydrogen peroxide concentration ([2]; in tap water, day 34, initial 1.2%)","peroxide concentration ([3]; in dioxytetrahydride gas-infused water, after four (4) months)","peroxide concentration ([3]; in dioxytetrahydride gas-infused water, after two weeks, clear PET-1 bottle on shelf in open light)","peroxide concentration ([3]; in distilled water, after four (4) months)","peroxide concentration ([3]; in distilled water, after two weeks, clear PET-1 bottle on shelf in open light)",SMILES,"concentration of chlorine dioxide after aging ([1]; in dioxytetrahydride gas-infused water, initial 0.2 ppm)","concentration of chlorine dioxide after aging ([1]; in dioxytetrahydride gas-infused water, initial 0.4 ppm)","concentration of chlorine dioxide after aging ([1]; in tap water, initial 0.2 ppm)","concentration of chlorine dioxide after aging ([1]; in tap water, initial 0.4 ppm)"
,,,,,,,,[O][Cl+][O-] [chlorine dioxide],0.2 ppm,0.4 ppm,0.0 ppm,0.2 ppm
1.2%,~100%,0.4%,below 0.2%,50 ppm,50 ppm,30 ppm,30 ppm,OO [hydrogen peroxide],,,,

# From patent US10259712B2, “Method of stabilizing compounds in water, water compositions thereby, and articles containing said water compositions” (priority 2015, dated 2019)
